Results reported in US8304236B2, “Modified biotin-binding protein” (Japan Tobacco Inc., priority 2008, dated 2012).
Read-outs that look alike come from different tables or passages of the source.

Legend:
[1] = biological target: T1, tamavidin 2 (TM2), wild type, SEQ ID NO: 2, Pleurotus cornucopiae (Pleurotus cornucopiae, UniProt B9A0T7); assay: Biacore 3000 iminobiotin binding test (Example 2); details: Iminobiotin-BSA analyte, protein immobilized, pH 11, 25° C.
T1 sequence (B9A0T7 1-141): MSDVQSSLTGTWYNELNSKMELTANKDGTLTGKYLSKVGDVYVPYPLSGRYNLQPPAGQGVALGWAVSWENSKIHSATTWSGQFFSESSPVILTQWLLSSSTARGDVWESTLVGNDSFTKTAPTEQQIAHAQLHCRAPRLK
Description: These samples were diluted with 10 mM acetate buffer (pH 5, Biacore) into about 50 μg/mL.
Immobilization was performed at 25° C. and a flow rate of 10 μL/min using HBS-EP (Biacore) as a running buffer. The TM2 and the TM2 mutant (about 4000 to 8000 RU) were immobilized on CM5 sensor chips (Biacore) by amine coupling. The activating time was set to 10 minutes.
The specific interaction was measured using iminobiotin BSA as an analyte (a material flowing in a flow channel) at 25° C. and a flow rate of 20 μL/min and using a CAPS buffer (50 mM CAPS, 150 mM NaCl, 0.005% Tween 20, pH 11) as the running buffer. Iminobiotin BSA was produced as follows: A highly purified BSA (Sigma, 2 mg) and NHS-iminobiotin (Pierce, 1 mg) were dissolved in 50 mM sodium borate (pH 8.0, 1 mL), followed by incubation at 4° C. for 2 hours. […] Subsequently, the iminobiotin-BSA produced by the process described above was similarly measured with the same flow cell.
Each constant of samples showing interaction was calculated using analysis software BIAevaluation ver. […] The dissociation constant (KD) was determined from kd/ka. […] Accordingly, in the analysis, the Rmax was calculated by conducting local fitting for each concentration, and only the results at concentrations (mainly 18.75 to 75 nM) approximated to the 1:1 (Langmuir) binding model were employed.

[2] = biological target: tamavidin 2 (TM2) variant TM2 K33TK37AR104E, SEQ ID NO: 14 (Pleurotus cornucopiae, UniProt B9A0T7, K33T/K37A/R104E); assay: Biacore 3000 biotin-binding test of low-pI TM2 (Example 1); details: BSA-LCLC-Biotin (30.5 Å) immobilized; 25° C.
Chain of tamavidin 2 (TM2) variant TM2 K33TK37AR104E, SEQ ID NO: 14 (B9A0T7 entry or part of it K33T/K37A/R104E): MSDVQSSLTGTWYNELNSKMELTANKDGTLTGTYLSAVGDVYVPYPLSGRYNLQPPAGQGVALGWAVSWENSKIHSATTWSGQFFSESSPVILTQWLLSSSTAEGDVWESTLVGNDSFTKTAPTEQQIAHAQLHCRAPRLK
Description: (§1) HBS-EP (Biacore) was used as a running buffer, and each low-pI TM2 (40 μL) was injected at 25° C. and a flow rate of 20 μL/min for 2 minutes.
(§2) From the resulting sensorgrams, the binding rate constant (ka), the dissociation rate constant (kd), and the dissociation constant (KD) were calculated using an analysis software, BIAevaluation version 4.1.

[3] = biological target: T1, tamavidin 2 (TM2), wild type, SEQ ID NO: 2, Pleurotus cornucopiae; assay: as above; details: 25° C.
Description: as §1, §2

[4] = biological target: tamavidin 2 (TM2) variant TM2 R104E, SEQ ID NO: 8 (Pleurotus cornucopiae, UniProt B9A0T7, R104E); assay: as above; details: BSA-LCLC-Biotin (30.5 Å) immobilized; 25° C.
Chain of tamavidin 2 (TM2) variant TM2 R104E, SEQ ID NO: 8 (B9A0T7 entry or part of it R104E): as the sequence (B9A0T7 entry or part of it K33T/K37A/R104E) above, with T33K, A37K counted along it
Description: (3) a TM2 mutant in which arginine at position 104 was replaced with glutamic acid (hereinafter referred to as “TM2 R104E; its nucleotide sequence is listed in SEQ ID NO: 7, and the amino acid sequence in SEQ ID NO: 8);
as §1, §2

[5] = biological target: tamavidin 2 (TM2) variant TM2 K141E, SEQ ID NO: 10 (Pleurotus cornucopiae, UniProt B9A0T7, K141E); assay: as above; details: BSA-LCLC-Biotin (30.5 Å) immobilized; 25° C.
Chain of tamavidin 2 (TM2) variant TM2 K141E, SEQ ID NO: 10 (B9A0T7 entry or part of it K141E): as the sequence (B9A0T7 entry or part of it K33T/K37A/R104E) above, with T33K, A37K, E104R, K141E counted along it
Description: (4) a TM2 mutant in which lysine at position 141 was replaced with glutamic acid (hereinafter referred to as “TM2 K141E; its nucleotide sequence is listed in SEQ ID NO: 9, and the amino acid sequence in SEQ ID NO: 10);
as §1, §2

[6] = biological target: tamavidin 2 (TM2) variant TM2 K33TK37A, SEQ ID NO: 12 (Pleurotus cornucopiae, UniProt B9A0T7, K33T/K37A); assay: as above; details: BSA-LCLC-Biotin (30.5 Å) immobilized; 25° C.
Chain of tamavidin 2 (TM2) variant TM2 K33TK37A, SEQ ID NO: 12 (B9A0T7 entry or part of it K33T/K37A): as the sequence (B9A0T7 entry or part of it K33T/K37A/R104E) above, with E104R counted along it
Description: (5) a TM2 mutant in which lysine at position 33 was replaced with threonine, and lysine at position 37 was replaced with alanine (hereinafter referred to as “TM2 K33TK37A”; its nucleotide sequence is listed in SEQ ID NO: 11, and the amino acid sequence in SEQ ID NO: 12);
as §1, §2

[7] = biological target: tamavidin 2 (TM2) variant TM2 K26A, SEQ ID NO: 4 (Pleurotus cornucopiae, UniProt B9A0T7, K26A); assay: as above; details: SA-LC-Biotin (22.4 Å) immobilized; 25° C.
Chain of tamavidin 2 (TM2) variant TM2 K26A, SEQ ID NO: 4 (B9A0T7 entry or part of it K26A): as the sequence (B9A0T7 entry or part of it K33T/K37A/R104E) above, with K26A, T33K, A37K, E104R counted along it
Description: (1) a TM2 mutant in which lysine at position 26 was replaced with alanine (hereinafter referred to as “TM2 K26A”; its nucleotide sequence is listed in SEQ ID NO: 3 and the amino acid sequence in SEQ ID NO: 4);
as §1, §2

[8] = biological target: tamavidin 2 (TM2) variant TM2 K73Q, SEQ ID NO: 6 (Pleurotus cornucopiae, UniProt B9A0T7, K73Q); assay: as above; details: SA-LC-Biotin (22.4 Å) immobilized; 25° C.
Chain of tamavidin 2 (TM2) variant TM2 K73Q, SEQ ID NO: 6 (B9A0T7 entry or part of it K73Q): as the sequence (B9A0T7 entry or part of it K33T/K37A/R104E) above, with T33K, A37K, K73Q, E104R counted along it
Description: (2) a TM2 mutant in which lysine at position 73 was replaced with glutamine (hereinafter referred to as “TM2 K73Q”; its nucleotide sequence is listed in SEQ ID NO: 5, and the amino acid sequence in SEQ ID NO: 6);
as §1, §2

[9] = biological target: tamavidin 2 (TM2) variant TM2 R104EK141E, SEQ ID NO: 16 (Pleurotus cornucopiae, UniProt B9A0T7, K141E/R104E); assay: as above; details: SA-LC-Biotin (22.4 Å) immobilized; 25° C.
Chain of tamavidin 2 (TM2) variant TM2 R104EK141E, SEQ ID NO: 16 (B9A0T7 entry or part of it R104E/K141E): as the sequence (B9A0T7 entry or part of it K33T/K37A/R104E) above, with T33K, A37K, K141E counted along it
Description: (7) a TM2 mutant in which arginine at position 104 was replaced with glutamic acid, and lysine at position 141 was replaced with glutamic acid (hereinafter referred to as “TM2 R104EK141E”; its nucleotide sequence is listed in SEQ ID NO: 15, and the amino acid sequence in SEQ ID NO: 16).
as §1, §2

[10] = system: tamavidin 2 (TM2) variant TM2 D40N, SEQ ID NO: 20; assay: Biacore 3000 biotin-binding test (Example 2); parameters: species or system Pleurotus cornucopiae; details: Biotin-LC-BSA
Description: As described above, a TM2 mutant in which aspartic acid at position 40 was replaced with asparagine (hereinafter referred to as “TM2 D40N”; its nucleotide sequence SEQ ID NO: 19, and the amino acid sequence in SEQ ID NO: 20) was constructed.
The solution was put into a dialysis tube (MWCO 6-8,000) and was dialyzed with 50 mM sodium carbonate (pH 6.7) at 4° C. overnight.
The amount for immobilization was adjusted to about 200 RU.
Accordingly, seven step measurement (3.125, 6.25, […], 25, 50, 100, and 200 nM) was conducted from the lowest concentration, without recycling steps. […] The measurement was performed at 25° C. The resulting sensorgrams were subjected to reaction kinetics analysis using analysis software BIAevaluation ver. 4.1 with a 1:1 binding model to calculate the binding rate constant (ka) and the dissociation rate constant (kd). The dissociation constant (KD) was determined from kd/ka. In the case where no recycling step is employed, the Rmax (maximum amount of binding analyte) decreases at each measurement. Accordingly, in the analysis, the Rmax was calculated by conducting local fitting for each concentration, and only the data of analyte concentrations that were approximated to the 1:1 binding model was employed.

[11] = biological target: T1, tamavidin 2 (TM2), wild type, SEQ ID NO: 2, Pleurotus cornucopiae; assay: Biacore 3000 biotin binding test (Example 3); details: Biotin-BSA (22.4 Å) immobilized
Description: TM2 and HALU TM2 used as analytes were prepared by purification with 2-iminobiotin agarose in accordance with a common method and dialysis with 20MM KPi (pH 7) overnight. The analytes were each adjusted to about 50 μg/mL in 10 mM acetate buffer (pH 5, Biacore).
The immobilization of the ligand and measurement and analysis of specific interaction with the analytes were conducted as in paragraph 2-7-2).

[12] = biological target: T1, tamavidin 2 (TM2), wild type, SEQ ID NO: 2, Pleurotus cornucopiae; details: WO2008/081938 A1; cited from earlier work
streptavidin = details: similarly measured; WO2008/081938 A1; cited from earlier work

N=C1N[C@H]2[C@H](CS[C@H]2CCCCC(=O)O)N1 [iminobiotin] gave a kon ([1]; read-out: binding rate constant (ka)) of 130000 ± 5e+09 M⁻¹ s⁻¹ and a koff ([1]; read-out: dissociation rate constant (kd)) of 0.0013 ± 6e-07 s⁻¹.
For O=C(O)CCCC[C@@H]1SC[C@@H]2NC(=O)N[C@@H]21 [biotin, D-[(+)-cis-hexahydro-2-oxo-1H-thieno-(3,4)-imidazole-4-valerate]], the “binding rate constant (ka)” value [2] was 6.3 × 10^5, the “binding rate constant (ka)” value ([3]; BSA-LCLC-Biotin (30.5 Å) immobilized) was 9.2 × 10^5 and the “binding rate constant (ka)” value ([3]; SA-LC-Biotin (22.4 Å) immobilized) was 9.9 × 10^5. The “binding rate constant (ka)” value [4] was 5.8 × 10^5, the “binding rate constant (ka)” value [5] was 5.8 × 10^5 and the “binding rate constant (ka)” value [6] was 2.5 × 10^5. For the same compound, the “binding rate constant (ka)” value [7] was 5.0 × 10^5, the “binding rate constant (ka)” value [8] was 5.9 × 10^5 and the “binding rate constant (ka)” value [9] was 1.2 × 10^6. The “change of binding rate constant (ka) compared to TM2” value [10] was “increased”, the “change of dissociation rate constant (kd) compared to TM2” value [10] was “decreased” and the “binding rate constant (ka)” value [11] was 9.9 × 10^5. For the same compound, the “binding rate constant (ka)” value [12] was 919000 M⁻¹ s⁻¹, the “dissociation rate constant (kd)” value [12] was 6.83e-06 s⁻¹ and the “binding rate constant (ka)” value (streptavidin) was 2.28e+06 M⁻¹ s⁻¹. The “dissociation rate constant (kd)” value (streptavidin) was 2.52e-06 s⁻¹.
